Test results reported in patent publication US11478527B2, “FGF receptor ligands for treating diabetes and obesity” (Albert Einstein College of Medicine, priority 2015, dated 2022).

Legend:
HFD-fed mice [1] = conditions: U0126 thirty minutes before FGF19 injection
Experimental: ERK1/2 signaling involved in FGF19-glucose metabolism regulation. […] Mice were treated twice with FGF19 (starting 16 hours after fasting and 6.5 hours apart) and tissues were collected 90 minutes after the last ip injection (2C) Analysis of co-localization between Npy-hrGFP positive neurons (lighter gray) and p-ERK1/2 positive cells (darker gray) in 24 h fasted ob/ob Npy-hrGFP mice following intraperitoneal injections of FGF19. (2D) Quantification of Npy-hrGFP positive neurons that colocalize with pERK1/2 staining in ARC (Bregma −1.7 to −1.9 mm) of ob/ob Npy-hrGFP mice (10 sections from 3 mice were examined in each group). (2E) Representative sections showing absence of co-localization between Pomc-eGFP positive neurons (lighter gray) and p-ERK1/2 positive cells (darker gray) in 24 h fasted ob/ob Pomc-eGFP mice following intraperitoneal injections of FGF19. *P<0.05, ***P<0.005.
It was assessed whether increased ERK1/2 activation could mediate the glucose lowering effect of FGF19.

[2] = system: hypothalamic AGRP/NPY neurons; conditions: cited from earlier work
AGRP/NPY neurons = test: Colocalization of phospho-ERK1/2 with Npy-GFP in ARC after intraperitoneal FGF19; type: in vivo; conditions: 24 h fasted Npy-hrGFP ob/ob mice
Experimental: FIG. 2A-2E. ERK1/2 signaling involved in FGF19-glucose metabolism regulation.
The neuronal population targeted by FGF19 was investigated. 24 h fasted Npy-hrGFP transgenic mice deficient in leptin (Npy-hrGFP ob/ob), in which AGRP/NPY neurons in ARC appear GFP+, were injected intraperitoneally with FGF19 and the colocalization between phospho-ERK1/2 and Npy-GFP was analyzed in ARC. […] Overall, the data support that central FGF19 improved glucose metabolism required activation of ERK1/2 signaling and that AGRP/NPY neurons are a likely mediator of FGF19 action.

HFD-fed mice [3] = conditions: FGF19 injected centrally and peripherally; previously shown (3); cited from earlier work
POMC neurons = test: Colocalization of phospho-ERK1/2 with Pomc-eGFP in ARC after intraperitoneal FGF19; type: in vivo; conditions: 24 h fasted Pomc-eGFP ob/ob mice
8 month old outbred mice = test: Oral glucose tolerance test after intraparenchymal injection of peptide into the mediobasal hypothalamus; type: in vivo
Experimental: A peptide of 13 amino acids ([…]) (SEQ ID NO:4) was synthesized based on the conserved sequences between the FGF8 and FGF17 b splice isoforms and the helical nature of this region of FGF8 based on a published crystal structure. This peptide was injected intraparenchymally into the mediobasal hypothalamus of 8 month old outbred mice. Having been fasted overnight, the mice were subjected to an oral glucose tolerance test (2 mg/g of glucose) using a crossover design to obtain a control condition. […] With aCSF, the median area under the curve for the 3 hour GTT was 43,747 mg-min/dL whereas it was […] with F8b13. Blood glucose concentrations were not different before the glucose load. These FGF derived peptide antagonists are useful as therapeutic agents in diabetes and obesity conditions.

N#CC(=C(/N)Sc1ccccc1N)/C(C#N)=C(\N)Sc1ccccc1N [U0126]
effect of U0126 pre-treatment on the glucose lowering effect of FGF19 (HFD-fed mice [1]): blocked the glucose lowering effect of FGF19

FGF19: endocrine fibroblast growth factor
induction of AGRP and NPY mRNA ([2]; mice fasted overnight): prevented the induction of AGRP and NPY mRNA | ERK1/2 activation in hypothalamic AGRP/NPY neurons ([2]; mouse, in vivo): activated ERK1/2 | FOS in hypothalamic AGRP/NPY neurons ([2]; mouse, in vivo): FOS was reduced | effects on POMC neurons ([2]; mouse, in vivo): no effects | colocalization of FGF19-induced pERK1/2 staining with NPY-GFP+ neurons in ARC (AGRP/NPY neurons): colocalized with NPY-GFP+ neurons | glucose handling in obese mice (ob/ob) and high fat fed mice (HFD-fed mice [3]): could improve glucose handling | colocalization of Pomc-eGFP positive neurons with pERK1/2 staining in ARC (POMC neurons): do not colocalize

PNFTQHVREQSLV (peptide fragment based on human sequence) [F8b13]
glucose tolerance compared to the same mice after aCSF (8 month old outbred mice; oral GTT 2 mg/g glucose, overnight fast, crossover design): improved glucose tolerance | median area under the curve for the 3 hour GTT (8 month old outbred mice; oral GTT 2 mg/g glucose, overnight fast, crossover vs aCSF, intraparenchymal injection into mediobasal hypothalamus): 33500 mg·min/dL | blood glucose concentrations before the glucose load (8 month old outbred mice; overnight fasted, vs aCSF): not different
